In publication PMC11229439 (GeroScience, 2023) one finds Ki data, which are given here for one compound.

The experiment addresses T1, cystathionine γ-lyase (CGL) (Rattus norvegicus, UniProt P18757).
T1 construct: gene Cth
As to the kind of experiment: homoserine γ-elimination assay (2-oxobutanoate), Dixon plot. The class given is biochemical.

T1 sequence (P18757 whole entry): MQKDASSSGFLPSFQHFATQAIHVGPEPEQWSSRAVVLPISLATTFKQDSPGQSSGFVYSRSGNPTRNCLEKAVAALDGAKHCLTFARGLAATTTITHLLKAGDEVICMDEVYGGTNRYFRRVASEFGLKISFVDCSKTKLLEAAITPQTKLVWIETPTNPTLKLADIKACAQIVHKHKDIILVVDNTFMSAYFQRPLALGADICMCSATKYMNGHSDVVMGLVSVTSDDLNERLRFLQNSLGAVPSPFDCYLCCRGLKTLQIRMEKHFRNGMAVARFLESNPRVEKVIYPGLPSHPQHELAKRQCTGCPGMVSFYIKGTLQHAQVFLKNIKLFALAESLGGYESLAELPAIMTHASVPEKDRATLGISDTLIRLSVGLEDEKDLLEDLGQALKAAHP

As for `N[C@@H](CS)C(=O)O` [cysteine], the Ki came to 520 µM.

The Ki is the dissociation constant of the complex between target and ligand, obtained from inhibition or displacement. A high value points to lower affinity.
